Assay results from US10278942B2 (PELOTON THERAPEUTICS, INC., priority 2015, dated 2019).
Read-outs that look alike come from different tables or passages of the source.

Tests used:
[1] = molecular target: T1, HIF-2α HIS TAG-PASB Domain (Homo sapiens, UniProt Q99814); assay: HIF-2α Scintillation Proximity Assay (SPA); type: binding
T1 construct: 100 nM HIF-2α HIS TAG-PASB Domain
Procedure, shortened: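 IC50 values rest on percent inhibition, where the sample signal is scaled between high and low controls. Wells contain about 100 μL: compound dispensed as 2 μL of DMSO solution, 88 μL protein-probe mix and 10 μL of beads.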

786-O-Hif-Luc cells = assay: Luciferase Assay (HIF responsive elements reporter); settings: read-out: Mean Luciferase EC50 (nM), 786-O-Hif-Luc cells
Protocol: A pool of infected cells were then selected against 2 μg/mL of puromycin (P8833, Sigma) for 10 days followed by limited dilution to select single clones. […] Each concentration was tested in triplicate. After about 24 hours, luciferase activity was determined using ONE-Glo Luciferase Assay Reagent (E6110, Promega) following the manufacturer's recommended procedure. EC50 were calculated using Dotmatics software.

786-O cells = assay: VEGF ELISA Assay; type: cell-based; settings: Homo sapiens, 786-0
Protocol: Each concentration was plated in duplicate. About 20 hours later, medium was removed by suction and each well was supplied with 180 μL of growth medium. About 20 μl freshly-made 10× compound stocks were added to each well. […] The EC50 was calculated by GraphPad Prism using the dose-response-inhibition (four parameter) equation. The cell-seeded plate was then subjected to CellTiter-Glo luminescence cell viability assay (Promega) by adding 50 μL of Celltiter Glo reagent into each well and shaking the plate for 8 minutes at 550 rpm (Thermomixer R, Eppendorf) then the luminescence signal immediately read in a plate reader (3 second delay, 0.5 second/well integration time, Synergy 2 multi Detection Microplate reader).

[2] = read-out: Scintillation Proximity Assay IC50
[3] = Scintillation Proximity Assay IC50 (nM)

T1 sequence (Q99814 240-350 limits assumed): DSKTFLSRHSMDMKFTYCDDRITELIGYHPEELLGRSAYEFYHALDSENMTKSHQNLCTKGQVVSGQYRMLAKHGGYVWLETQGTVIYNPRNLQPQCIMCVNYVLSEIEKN

| SMILES | IC50 [1, 2] | EC50 (786-O-Hif-Luc cells) | EC50 (786-O cells) | IC50 [1, 3] |
| --- | --- | --- | --- | --- |
| CS(=O)(=O)c1ccc(OC2CC(F)(F)C2)c2c1[C@H](O)C(F)(F)[C@@H]2F [Compound 574, (1S,3R)-4-(3,3-difluorocyclobutoxy)-2,2,3-trifluoro-7-(methylsulfonyl)-2,3-dihydro-1H-inden-1-ol] | < 50 nM | 50 to 249 nM | 50 to 249 nM |  |
| CS(=O)(=O)c1ccc(OC2CC(F)(F)C2)c2c1[C@H](O)[C@H](F)[C@@H]2F [Compound 577] | < 50 nM | 250 to 1000 nM | 250 to 1000 nM |  |
| N#CC1(COc2ccc(S(=O)(=O)C(F)(F)F)c3c2CC(F)(F)C3O)CC1 (stereo not drawn) [Compound 620] | 50 to 249 nM | 50 to 249 nM | 50 to 249 nM |  |
| CS(=O)(=O)c1ccc(O[C@H]2C[C@H](F)C2)c2c1[C@H](O)C(F)(F)[C@@H]2F [Compound 736] | < 50 nM | 50 to 249 nM | 50 to 249 nM |  |
| N=S1(=O)c2ccc(Oc3cc(F)cc(F)c3)c(C(F)F)c2C(O)C1(F)F (stereo not drawn) [Compound 398] | < 50 nM | 50 to 249 nM | 50 to 249 nM |  |
| O=S(=O)(c1ccc(Nc2cc(F)cc(F)c2)c2c1C(O)C(F)(F)C2)C(F)(F)F (stereo not drawn) [Compound 507] | < 50 nM | 50 to 249 nM | 50 to 249 nM |  |
| O=S(=O)(c1ccc(OCCF)c2c1[C@H](O)C(F)(F)C2)C(F)(F)F [Compound 706] | 50 to 249 nM | 50 to 249 nM | 50 to 249 nM |  |
| CS(=O)(=O)c1ccc(OC2CC(F)(F)C2)c2c1[C@H](O)C(F)(F)C2 [Compound 734] | 50 to 249 nM | 50 to 249 nM | 250 to 1000 nM |  |
| N#Cc1cncc(Oc2ccc3c(c2Br)[C@@H](O)C(F)(F)S3(=O)=O)c1 [Compound 424] | 50 to 249 nM | 50 to 249 nM | 250 to 1000 nM |  |
| CS(=O)(=O)c1ccc(O[C@H]2C[C@@H](F)C2)c2c1[C@H](O)C(F)(F)[C@@H]2F [Compound 740] | < 50 nM | 50 to 249 nM | 50 to 249 nM |  |
| NC1c2c(ccc(Oc3cc(F)cc(F)c3)c2C(F)F)S(=O)(=O)C1(F)F (stereo not drawn) [Compound 365] | < 50 nM | 50 to 249 nM | 50 to 249 nM |  |
| CS(=O)(=NC#N)c1ccc(Oc2cc(F)cc(F)c2)c2c1C(O)C(F)(F)C2 (stereo not drawn) [Compound 191] | < 50 nM | 50 to 249 nM | 50 to 249 nM |  |
| O=S(=O)(c1ccc(Oc2cc(F)cc(F)c2)c2c1[C@H](O)CC2)C(F)F [Compound 2] | < 50 nM | 50 to 249 nM | 50 to 249 nM |  |
| CS(=O)(=O)c1ccc(O[C@H]2C[C@H](C#N)C2)c2c1[C@H](O)C(F)(F)[C@@H]2F [Compound 760] | < 50 nM | 50 to 249 nM | 50 to 249 nM |  |
| CS(=O)(=O)c1ccc(Oc2cncc(C#N)c2)c2c1[C@H](O)C(F)(F)C2 [Compound 325] | 50 to 249 nM | 250 to 1000 nM | 50 to 249 nM |  |
| CC(C)(C#N)COc1ccc(S(=O)(=O)C(F)(F)F)c2c1CC(F)(F)C2O (stereo not drawn) [Compound 610] | < 50 nM | 50 to 249 nM | 50 to 249 nM |  |
| O=S(=O)(CF)c1ccc(Oc2cc(F)cc(F)c2)c2c1[C@H](O)CC2 [Compound 60] | < 50 nM | 50 to 249 nM | < 50 nM |  |
| O=S(=O)(CF)c1ccc(Oc2cc(F)c(F)c(F)c2)c2c1[C@H](O)C(F)(F)C2 [Compound 188] | < 50 nM | 50 to 249 nM | 50 to 249 nM |  |
| O=S(=O)(c1ccc(CCO)c2c1C(O)CC2)C(F)(F)F (stereo not drawn) [Compound 495, 4-(2-hydroxyethyl)-7-((trifluoromethyl)sulfonyl)-2,3-dihydro-1H-inden-1-ol] | > 1000 nM | > 1000 nM | 250 to 1000 nM |  |
| CS(=O)(=O)c1ccc(O[C@H]2C[C@@H](C#N)C2)c2c1[C@H](O)C(F)(F)[C@@H]2F [Compound 761] | < 50 nM | 50 to 249 nM | 50 to 249 nM |  |
| O=S(=O)(c1ccc(OC2COC2)c2c1[C@H](O)C(F)(F)C2)C(F)(F)F [Compound 784] | 50 to 249 nM | 50 to 249 nM | 50 to 249 nM |  |

Results, then the compound that gave them:

| IC50 [1, 2] | EC50 (786-O-Hif-Luc cells) | EC50 (786-O cells) | IC50 [1, 3] | SMILES |
| --- | --- | --- | --- | --- |
| < 50 nM | < 50 nM | < 50 nM |  | N#Cc1cc(F)cc(Oc2ccc(S(=N)(=O)C(F)(F)F)c3c2CC(F)(F)[C@H]3O)c1 (stereo partly drawn) [Compound 305] |
| < 50 nM | < 50 nM | 50 to 249 nM |  | O=S(=O)(CF)c1ccc(O[C@H]2C[C@H](F)C2)c2c1[C@H](O)[C@H](F)[C@@H]2F [Compound 743] |
| < 50 nM | < 50 nM | < 50 nM |  | O=S(=O)(c1ccc(Oc2ccc(F)c(F)c2)c2c1[C@H](O)C(F)(F)C2)C(F)(F)F [Compound 233] |
| < 50 nM | < 50 nM | < 50 nM |  | CC(C)COc1ccc(S(=O)(=O)C(F)(F)F)c2c1CC(F)(F)[C@H]2O [Compound 709] |
| < 50 nM | < 50 nM | < 50 nM |  | O=S(=O)(c1ccc(OC2CCOCC2)c2c1[C@H](O)C(F)(F)C2)C(F)(F)F [Compound 744] |
|  | < 50 nM | < 50 nM | < 50 nM | O=S(=O)(c1ccc(Oc2cc(F)cc(Cl)c2)c2c1[C@H](O)C(F)(F)C2)C(F)F [Compound 158] |
| < 50 nM | < 50 nM | < 50 nM |  | O=S(=O)(c1ccc(Oc2cncc(F)c2)c2c1[C@H](O)C(F)(F)C2)C(F)(F)F [Compound 309] |
| < 50 nM | < 50 nM | 50 to 249 nM |  | Cc1cc(C#N)cc(Oc2ccc(S(=O)(=O)CF)c3c2CC(F)(F)[C@H]3O)c1 [Compound 166] |
| < 50 nM | < 50 nM | 50 to 249 nM |  | N#Cc1cncc(Oc2ccc(S(=O)(=O)C(F)(F)F)c3c2C[C@@H](F)[C@H]3O)c1 [Compound 225] |
|  | < 50 nM | < 50 nM | < 50 nM | N#Cc1cc(F)cc(Oc2ccc(S(=O)(=O)C(F)(F)F)c3c2CC(F)(F)[C@H]3O)c1 [Compound 185] |
|  | < 50 nM | < 50 nM | < 50 nM | O=S(=O)(c1ccc(Oc2cc(F)cc(Cl)c2)c2c1C(O)C(F)(F)C2)C(F)F (stereo not drawn) [Compound 8] |
| < 50 nM | < 50 nM | < 50 nM |  | O=S(=O)(c1ccc(Oc2ccc(F)c(F)c2)c2c1[C@H](O)C(F)(F)C2)C(F)F [Compound 196] |
| < 50 nM | < 50 nM | < 50 nM |  | N#Cc1cccc(Oc2ccc(S(=O)(=O)C(F)F)c3c2CC(F)(F)[C@H]3O)c1 [Compound 236] |
| < 50 nM | < 50 nM | < 50 nM |  | O=S(=O)(c1ccc(OCCCF)c2c1[C@H](O)C(F)(F)C2)C(F)(F)F [Compound 712] |
| < 50 nM | < 50 nM | < 50 nM |  | N#CC1(COc2ccc(S(=O)(=O)C(F)(F)F)c3c2CC(F)(F)[C@H]3O)CC1 [Compound 658] |
| < 50 nM | < 50 nM | < 50 nM |  | O=S(=O)(c1ccc(Oc2cc(F)cc(F)c2)c2c1[C@H](O)CC2)C(F)(F)F [Compound 55] |
| < 50 nM | < 50 nM | < 50 nM |  | O=S(=O)(c1ccc(Oc2cc(F)cc(F)c2)c2c1C(O)C(F)(F)C2)C(F)F (stereo not drawn) [Compound 9] |
| < 50 nM | < 50 nM | < 50 nM |  | N#Cc1cc(Oc2ccc(S(=O)(=O)C(F)(F)F)c3c2CC(F)(F)[C@H]3O)ccc1F [Compound 228] |
| < 50 nM | < 50 nM | < 50 nM |  | CS(=O)(=O)c1ccc(Oc2cc(F)cc(C#N)c2)c2c1[C@H](O)C(F)(F)[C@@H]2F [Compound 292, 3-fluoro-5-[(1S,3R)-2,2,3-trifluoro-1-hydroxy-7-methylsulfonyl-indan-4-yl]oxy-benzonitrile] |
| < 50 nM | < 50 nM | < 50 nM |  | O=S(=O)(c1ccc(OCC(F)F)c2c1[C@H](O)C(F)(F)C2)C(F)(F)F [Compound 571] |
| < 50 nM | < 50 nM | 50 to 249 nM |  | O=S(=O)(c1ccc(OC2CCOCC2)c2c1[C@H](O)C(F)(F)C2)C(F)F [Compound 783] |
| < 50 nM | < 50 nM | 50 to 249 nM |  | O=S(=O)(c1ccc(OC2CCCC2)c2c1C(O)C(F)(F)C2)C(F)(F)F (stereo not drawn) [Compound 605] |
| < 50 nM | < 50 nM | < 50 nM |  | O=S(=O)(c1ccc(Oc2ccc(F)cc2)c2c1[C@H](O)C(F)(F)C2)C(F)(F)F [Compound 230] |
| < 50 nM | < 50 nM | 50 to 249 nM |  | CS(=O)(=O)c1ccc(Oc2cc(F)cc(Br)c2)c2c1[C@H](O)C(F)(F)C2 [Compound 304] |
| < 50 nM | < 50 nM | < 50 nM |  | O=S(=O)(c1ccc(OC2CC(F)(F)C2)c2c1[C@H](O)C(F)(F)C2)C(F)(F)F [Compound 572] |
| < 50 nM | < 50 nM | < 50 nM |  | O=S(=O)(c1ccc(Oc2cncc(Cl)c2)c2c1[C@H](O)C(F)(F)C2)C(F)(F)F [Compound 186] |
| < 50 nM | < 50 nM | < 50 nM |  | CCCOc1ccc(S(=O)(=O)C(F)(F)F)c2c1CC(F)(F)[C@H]2O [Compound 655] |
| < 50 nM | < 50 nM | < 50 nM |  | CC1(O)c2c(ccc(Oc3cc(F)cc(F)c3)c2C#N)S(=O)(=O)C1(F)F (stereo not drawn) [Compound 446] |
| < 50 nM | < 50 nM | < 50 nM |  | CS(=O)(=NC#N)c1ccc(Oc2cc(F)cc(C#N)c2)c2c1[C@H](O)C(F)(F)[C@@H]2F (stereo partly drawn) [Compound 316] |
